Legend:
[1] = test system: CHEAL (Chenopodium album, common lambsquarters); test: Postemergence herbicidal activity of mixtures in cereal crops, greenhouse; type: in vivo, Chenopodium album L.
Experimental: (§1) Seeds of the desired test plant species were planted in Sun Gro MetroMix® 306 planting mixture, which typically has a pH of 6.0 to 6.8 and an organic matter content of about 30 percent, in plastic pots with a surface area of 103.2 square centimeters (cm^2). When required to ensure good germination and healthy plants, a fungicide treatment and/or other chemical or physical treatment was applied. The plants were grown for 7-36 days in a greenhouse with an approximate 14 hour photoperiod which was maintained at about 18° C. during the day and about 17° C. during the night. Nutrients and water were added on a regular basis and supplemental lighting was provided with overhead metal halide 1000-Watt lamps as necessary. The plants were employed for testing when they reached the second or third true leaf stage.
(§2) Treatments consisted of the benzyl ester of 4-amino-3-chloro-5-fluoro-6-(4-chloro-2-fluoro-3-methoxy-phenyl)pyridine-2-carboxylic acid (Compound A), formulated as an SC, a second cereal herbicide alone and then both in combination.
(§3) Other herbicidal components were applied on an active ingredient basis and included PSII-inhibiting herbicides.
(§4) Measured aliquots of benzyl ester of 4-amino-3-chloro-5-fluoro-6-(4-chloro-2-fluoro-3-methoxy-phenyl)pyridine-2-carboxylic acid (Compound A) were placed in 25 milliliter (mL) glass vials and diluted in a volume of 1.25% (v/v) Agri-Dex® crop oil concentrate to obtain stock solutions. Compound requirements are based upon a 12 mL application volume at a rate of 187 liters per hectare (L/ha). Spray solutions of the second cereal herbicide and experimental compound mixtures were prepared by adding the stock solutions to the appropriate amount of dilution solution to form 12 mL spray solution with active ingredients in two- and three-way combinations. Formulated compounds were applied to the plant material with an overhead Mandel track sprayer equipped with an 8002E nozzle calibrated to deliver 187 L/ha over an application area of 0.503 square meters (m^2) at a spray height of 18 inches (46 cm) above average plant canopy. Control plants were sprayed in the same manner with the solvent blank.
(§5) The treated plants and control plants were placed in a greenhouse as described above and watered by sub-irrigation to prevent wash-off of the test compounds. After 20-22 days, the condition of the test plants as compared with that of the control plants was determined visually and scored on a scale of 0 to 100 percent where 0 corresponds to no injury and 100 corresponds to complete kill.
(§6) Colby's equation was used to determine the herbicidal effects expected from the mixtures (Colby, S. R. 1967. Calculation of the synergistic and antagonistic response of herbicide combinations. Weeds 15:20-22). […]

[2] = test system: KCHSC (Kochia scoparia, kochia); test: as above; type: in vivo, Kochia scoparia (L.) Schrad.
Experimental: as §1, §2, §3, §4, §5
(§7) Colby's equation was used to determine the herbicidal effects expected from the mixtures (Colby, S. R. 1967. Calculation of the synergistic and antagonistic response of herbicide combinations. Weeds 15:20-22).
(§8) The following equation was used to calculate the expected activity of mixtures containing two active ingredients, A and B: Expected=A+B−(A×B/100)

[3] = test system: LAMPU (Lamium purpureum, purple deadnettle); test: as above; type: in vivo, Lamium purpureum L.
Experimental: as §1, §2, §3, §4, §5, §7, §8

[4] = test system: SASKR (Salsola tragus, Russian thistle); test: as above; type: in vivo, Salsola tragus L.
Experimental: as §1, §2, §3, §4, §5, §7, §8

[5] = test system: SINAR (Sinapis arvensis, wild mustard); test: as above; type: in vivo, Sinapis arvensis L.
Experimental: as §1, §2, §3, §4, §5, §7, §8

[6] = test system: SETFA (Setaria faberi, giant foxtail); test: Pre-emergence soil-applied mixtures, greenhouse; type: in vivo, Setaria faberi Herrm.; settings: 27 DAA
Text: (§9) Seeds or nutlets of the desired test plant species were planted in a soil matrix prepared by mixing a loam soil (32 percent silt, 23 percent clay, and 45 percent sand, with a pH of about 6.5 and an organic matter content of about 1.9 percent) and calcareous grit in an 80 to 20 ratio. The soil matrix was contained in plastic pots with a volume of 1 quart and a surface area of 83.6 square centimeters (cm^2).
(§10) Treatments consisted of the benzyl ester of 4-amino-3-chloro-5-fluoro-6-(4-chloro-2-fluoro-3-methoxy-phenyl)pyridine-2-carboxylic acid (compound A) formulated as an SC (suspension concentrate) and various herbicidal components alone and in combination. Forms of compound A were applied on an acid equivalent basis.
(§11) Other herbicidal components were applied on an acid equivalent or active ingredient basis and included the PSII-inhibiting herbicides, atrazine formulated as Atrazine® 90WDG, metribuzin formulated as Metribuzin 75DF, simazine formulated as Princep Caliber 90, tebuthiuron formulated as Spike 80DF, cyanazine (technical grade material), hexazinone (technical grade material), linuron (technical grade material), terbuthylazine (technical grade material), and diuron formulated as Diuron 4L.
(§12) Treatment requirements were calculated based upon the rates being tested, the concentration of active ingredient or acid equivalent in the formulation, and a 12 mL application volume at a rate of 187 L/ha.
(§13) For treatments comprised of formulated compounds, measured amounts of compounds were placed individually in 25 mL glass vials and diluted in a volume of 1.25% (v/v) Agri-Dex® crop oil concentrate (COC) to obtain 12× stock solutions. […] Application solutions were prepared by adding an appropriate amount of each stock solution (e.g., 1 mL) and diluted to the appropriate final concentrations with the addition of 10 mL of an aqueous mixture of 1.25% (v/v) COC so that the final spray solutions contained 1.25% (v/v) COC.
(§14) For treatments comprised of technical compounds, weighed amounts can be placed individually in 25 mL glass vials and dissolved in a volume of 97:3 (v/v) acetone/DMSO to obtain 12× stock solutions. […] Application solutions can be prepared by adding an appropriate amount of each stock solution (e.g., 1 mL) and diluted to the appropriate final concentrations with the addition of 10 mL of an aqueous mixture of 1.5% (v/v) COC so that the final spray solutions contain 1.25% (v/v) COC. When technical materials are used, the concentrated stock solutions can be added to the spray solutions so that the final acetone and DMSO concentrations of the application solutions are 16.2% and 0.5%, respectively.
(§15) For treatments comprised of formulated and technical compounds, weighed amounts of the technical materials can be placed individually in 25 mL glass vials and dissolved in a volume of 97:3 (v/v) acetone/DMSO to obtain 12× stock solutions, and measured amounts of the formulated compounds can be placed individually in 25 mL glass vials and diluted in a volume of 1.5% (v/v) COC or water to obtain 12× stock solutions. […] Application solutions can be prepared by adding an appropriate amount of each stock solution (e.g., 1 mL) and diluted to the appropriate final concentrations with the addition of an appropriate amount of an aqueous mixture of 1.5% (v/v) COC so that the final spray solutions contain 1.25% (v/v) COC. As required, additional water and/or 97:3 (v/v) acetone/DMSO can be added to individual application solutions so that the final acetone and DMSO concentrations of the application solutions being compared are 8.1% and 0.25%, respectively.
(§16) All stock solutions and applications solutions were visually inspected for compound compatibility prior to application. Spray solutions were applied to the soil with an overhead Mandel track sprayer equipped with a 8002E nozzles calibrated to deliver 187 L/ha over an application area of 0.503 m^2 at a spray height of 18 inches (46 cm) above average pot height. […]

[7] = test system: XANST (Xanthium strumarium, common cocklebur); test: Pre-emergence soil-applied mixtures, greenhouse; type: in vivo, Xanthium strumarium L.; settings: 29 DAA
Text: as §9, §10, §11, §12, §13, §14, §15, §16

[8] = test system: IPOHE (Ipomoea hederacea, ivyleaf morningglory); test: Pre-emergence soil-applied mixtures, greenhouse; type: in vivo, Ipomoea hederacea (L.) Jacq.
Text: as §9, §10, §11, §12, §13
For treatments comprised of technical compounds, weighed amounts can be placed individually in 25 mL glass vials and dissolved in a volume of 97:3 (v/v) acetone/DMSO to obtain 12× stock solutions. […]
For treatments comprised of formulated and technical compounds, weighed amounts of the technical materials can be placed individually in 25 mL glass vials and dissolved in a volume of 97:3 (v/v) acetone/DMSO to obtain 12× stock solutions, and measured amounts of the formulated compounds can be placed individually in 25 mL glass vials and diluted in a volume of 1.5% (v/v) COC or water to obtain 12× stock solutions. […]

[9] = test system: AMARE (Amaranthus retroflexus, redroot pigweed); test: Postemergence herbicidal activity of mixtures in cereal crops, greenhouse; type: in vivo, Amaranthus retroflexus L.
Experimental: as §1, §2, §3, §4, §5, §6

[10] = test system: GALAP (Galium aparine, catchweed bedstraw); test: as above; type: in vivo, Galium aparine L.
Experimental: as §1, §2, §3, §4, §5, §7, §8

[11] = test system: VERPE (Veronica persica, Persian speedwell); test: as above; type: in vivo, Veronica persica Poir.
Experimental: as §1, §2, §3, §4, §5, §7, §8

CSc1nnc(C(C)(C)C)c(=O)n1N [Metribuzin, 4-amino-6-(1,1-dimethylethyl)-3-(methylthio)-1,2,4-triazin-5(4H)-one, reference compound]
Visual Weed Control (%)-21 DAA CHEAL Obs ([1]; Metribuzin 25 g ai/ha): 0% | Visual Weed Control (%)-21 DAA CHEAL Obs ([1]; Metribuzin 50 g ai/ha): 55% | Visual Weed Control (%)-21 DAA KCHSC Obs ([2]; Metribuzin 25 g ai/ha): 0% | Visual Weed Control (%)-21 DAA KCHSC Obs ([2]; Metribuzin 50 g ai/ha): 8% | Visual Weed Control (%)-21 DAA KCHSC Obs ([2]; Metribuzin 100 g ai/ha): 88% | Visual Weed Control (%)-21 DAA LAMPU Obs ([3]; Metribuzin 25 g ai/ha): 3% | Visual Weed Control (%)-21 DAA LAMPU Obs ([3]; Metribuzin 50 g ai/ha): 15% | Visual Weed Control (%)-21 DAA LAMPU Obs ([3]; Metribuzin 100 g ai/ha): 23% | Visual Weed Control (%)-21 DAA SASKR Obs ([4]; Metribuzin 25 g ai/ha): 8% | Visual Weed Control (%)-21 DAA SASKR Obs ([4]; Metribuzin 50 g ai/ha): 8% | Visual Weed Control (%)-21 DAA SASKR Obs ([4]; Metribuzin 100 g ai/ha): 67% | Visual Weed Control (%)-21 DAA SINAR Obs ([5]; Metribuzin 25 g ai/ha): 8% | Visual Weed Control (%)-21 DAA SINAR Obs ([5]; Metribuzin 50 g ai/ha): 15% | Visual Weed Control (%) Obs ([6]; 210 g ai/ha): 43% | Visual Weed Control (%) Obs ([6]; 420 g ai/ha): 83%

CNC(=O)N(C)c1nnc(C(C)(C)C)s1 [Tebuthiuron, N-[5-(1,1-dimethylethyl)-1,3,4-thiadiazol-2-yl]-N,N′-dimethylurea, reference compound]
Visual Weed Control (%) - 29 DAA XANST Obs ([7]; Tebuthiuron 210 g ai/ha): 40% | Visual Weed Control (%) - 29 DAA XANST Obs ([7]; Tebuthiuron 3360 g ai/ha): 95% | Visual Weed Control (%) - 33 DAA IPOHE Obs ([8]; Tebuthiuron 420 g ai/ha): 87% | Visual Weed Control (%) - 33 DAA IPOHE Obs ([8]; Tebuthiuron 840 g ai/ha): 90%

CC(C)c1ccc(NC(=O)N(C)C)cc1 [Isoproturon, N,N-dimethyl-N′-[4-(1-methylethyl)phenyl]urea, reference compound]
Visual Weed Control (%) - 21 DAA AMARE Obs ([9]; Isoproturon 375 g ai/ha): 3% | Visual Weed Control (%) - 21 DAA AMARE Obs ([9]; Isoproturon 750 g ai/ha): 10% | Visual Weed Control (%) - 21 DAA GALAP Obs ([10]; Isoproturon 375 g ai/ha): 5% | Visual Weed Control (%) - 21 DAA GALAP Obs ([10]; Isoproturon 750 g ai/ha): 5% | Visual Weed Control (%) - 21 DAA GALAP Obs ([10]; Isoproturon 1500 g ai/ha): 27% | Visual Weed Control (%)-21 DAA LAMPU Obs ([3]; Isoproturon 375 g ai/ha): 3% | Visual Weed Control (%)-21 DAA LAMPU Obs ([3]; Isoproturon 750 g ai/ha): 3% | Visual Weed Control (%)-21 DAA LAMPU Obs ([3]; Isoproturon 1500 g ai/ha): 13% | Visual Weed Control (%)-21 DAA SINAR Obs ([5]; Isoproturon 375 g ai/ha): 13% | Visual Weed Control (%)-21 DAA SINAR Obs ([5]; Isoproturon 750 g ai/ha): 40% | Visual Weed Control (%) - 21 DAA VERPE Obs ([11]; Isoproturon 375 g ai/ha): 8% | Visual Weed Control (%) - 21 DAA VERPE Obs ([11]; Isoproturon 750 g ai/ha): 10% | Visual Weed Control (%) - 21 DAA VERPE Obs ([11]; Isoproturon 1500 g ai/ha): 13%

Source: patent publication US8912121B2, “Herbicidal compositions comprising 4-amino-3-chloro-5-fluoro-6-(4-chloro-2-fluoro-3-methoxyphenyl)pyridine-2-carboxylic acid or a derivative thereof and certain PS II inhibitors” (Dow Agrosciences LLC, priority 2012, dated 2014)
